The source of these data is patent publication US10377753B2, “Substituted 4-azaindoles and their use as GluN2B receptor modulators” (Janssen Pharmaceutica NV, priority 2015, dated 2019).

Structures can show the parent of a compound that is named as a salt.

This experiment concerns the target cloned human NR1/NR2B ion channels (Homo sapiens (Human), UniProt Q05586+Q13224). The experiment can be described thus: HNR2BC: effects of test articles on cloned human NR1/NR2B ion channels expressed in mammalian cells (FLIPR calcium flux). Format: cell-based. The conditions noted are these: Table 5. A digest of the protocol: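 Compounds were added to dye-loaded cells for 5 min with fluorescence monitored for agonism, followed by co-agonists (glutamate ~EC80, glycine 10 μM saturating) for 5 min. Cells stably expressed inducible human NR1/NR2B, and the buffer was pH 7.4. The FLIPR Ca2+ flux signal was normalized against control wells.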
On the technique in general: Calcium flux is commonly read through the fluorescence of an indicator in the cells.

Where [1] appears, read: cloned human NR1/NR2B ion channels.

cloned human NR1/NR2B ion channels, sequence (Q13224 27-1484, other chains not shown): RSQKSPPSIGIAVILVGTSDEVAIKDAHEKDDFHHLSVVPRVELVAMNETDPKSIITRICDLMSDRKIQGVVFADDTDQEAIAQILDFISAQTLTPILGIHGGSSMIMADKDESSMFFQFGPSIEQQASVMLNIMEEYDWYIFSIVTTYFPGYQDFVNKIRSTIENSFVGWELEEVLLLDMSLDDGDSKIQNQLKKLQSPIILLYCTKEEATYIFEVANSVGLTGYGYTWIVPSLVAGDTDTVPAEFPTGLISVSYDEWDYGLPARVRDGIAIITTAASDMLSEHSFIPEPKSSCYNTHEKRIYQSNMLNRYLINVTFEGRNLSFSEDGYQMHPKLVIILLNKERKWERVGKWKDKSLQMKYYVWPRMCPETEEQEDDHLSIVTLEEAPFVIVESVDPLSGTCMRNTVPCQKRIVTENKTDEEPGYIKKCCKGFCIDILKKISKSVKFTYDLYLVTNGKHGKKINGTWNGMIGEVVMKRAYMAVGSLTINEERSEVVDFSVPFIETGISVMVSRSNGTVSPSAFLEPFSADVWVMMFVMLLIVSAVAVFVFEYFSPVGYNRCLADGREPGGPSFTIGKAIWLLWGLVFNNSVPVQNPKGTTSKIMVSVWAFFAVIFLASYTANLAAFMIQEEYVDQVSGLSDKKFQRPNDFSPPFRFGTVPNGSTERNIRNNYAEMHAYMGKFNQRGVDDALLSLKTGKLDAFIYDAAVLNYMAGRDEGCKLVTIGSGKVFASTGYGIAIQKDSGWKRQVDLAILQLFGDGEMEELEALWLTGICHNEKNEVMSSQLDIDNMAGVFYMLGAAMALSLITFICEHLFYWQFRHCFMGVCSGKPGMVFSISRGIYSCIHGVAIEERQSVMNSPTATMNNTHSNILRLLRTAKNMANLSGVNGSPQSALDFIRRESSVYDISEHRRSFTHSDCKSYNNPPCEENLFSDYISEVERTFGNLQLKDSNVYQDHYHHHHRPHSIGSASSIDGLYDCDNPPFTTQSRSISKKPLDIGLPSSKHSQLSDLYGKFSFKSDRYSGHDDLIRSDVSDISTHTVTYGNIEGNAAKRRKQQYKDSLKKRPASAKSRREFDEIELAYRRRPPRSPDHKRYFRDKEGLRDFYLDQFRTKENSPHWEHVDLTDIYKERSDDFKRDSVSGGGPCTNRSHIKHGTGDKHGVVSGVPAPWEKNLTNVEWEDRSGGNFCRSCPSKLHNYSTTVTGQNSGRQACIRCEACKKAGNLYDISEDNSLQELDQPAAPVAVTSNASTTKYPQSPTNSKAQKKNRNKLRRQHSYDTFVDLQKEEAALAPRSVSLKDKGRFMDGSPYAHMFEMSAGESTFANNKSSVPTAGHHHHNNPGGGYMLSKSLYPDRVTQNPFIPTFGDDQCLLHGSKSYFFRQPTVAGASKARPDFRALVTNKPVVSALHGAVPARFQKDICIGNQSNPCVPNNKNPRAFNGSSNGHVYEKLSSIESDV

Regarding `CN(C)C(=O)Cn1cc(F)c2ncc(-c3cccc(Cl)c3)cc21` [Example 503, 2-[6-(3-Chlorophenyl)-3-fluoro-pyrrolo[3,2-b]pyridin-1-yl]-N,N-dimethyl-acetamide], the IC50 (as a rule, the concentration at which inhibition is half-maximal) under setting [1] was 15.8 nM.

For `Cc1cc(-c2cnc3c(F)cn(CC(=O)N4CC(F)C4)c3c2)ccc1F` [Example 307, 1-(3-Fluoroazetidin-1-yl)-2-[3-fluoro-6-(4-fluoro-3-methyl-phenyl)pyrrolo[3,2-b]pyridin-1-yl]ethanone], the IC50 (cloned human NR1/NR2B) was 39.8 nM.

As to `O=C(Cn1cc(Cl)c2ncc(-c3ccc(F)c(Cl)c3)cc21)N1CC(F)C1` [Example 540, 2-[3-Chloro-6-(3-chloro-4-fluoro-phenyl)pyrrolo[3,2-b]pyridin-1-yl]-1-(3-fluoroazetidin-1-yl)ethanone], the IC50 under setting [1] is 25.1 nM.

As to `CN(C)C(=O)Cn1cc(Cl)c2ncc(-c3ccc(F)c(C(F)(F)F)c3)cc21` [Example 516, 2-[3-Chloro-6-[4-fluoro-3-(trifluoromethyl)phenyl]pyrrolo[3,2-b]pyridin-1-yl]-N,N-dimethyl-acetamide], under setting [1], the IC50 was 200 nM.

`CN(C)C(=O)Cn1ccc2ncc(-c3cc4ccccc4s3)cc21` [Example 604, 2-[6-(Benzothiophen-2-yl)pyrrolo[3,2-b]pyridin-1-yl]-N,N-dimethyl-acetamide]: the IC50 under setting [1] was 200 nM.

Consider `Cc1csc(-c2cnc3c(F)cn(CC(=O)C(C)C)c3c2)c1` [Example 343, 1-[3-Fluoro-6-(4-methyl-2-thienyl)pyrrolo[3,2-b]pyridin-1-yl]-3-methyl-butan-2-one], for which, where the note is “cloned human NR1/NR2B”, the IC50 is 63.1 nM.

For `Cc1cc(Cn2ccc3ncc(-c4ccc(F)cc4)cc32)no1` [Example 65, 3-[[6-(4-Fluorophenyl)pyrrolo[3,2-b]pyridin-1-yl]methyl]-5-methyl-isoxazole trifluoroacetate salt], the IC50 (cloned human NR1/NR2B) is 79.4 nM.

Turning to `CCC(=O)Cn1cc(F)c2ncc(-c3ccc(F)c(F)c3)cc21` [Example 336, 1-[6-(3,4-Difluorophenyl)-3-fluoro-pyrrolo[3,2-b]pyridin-1-yl]butan-2-one], for the setting “cloned human NR1/NR2B”, the IC50 is 20 nM.

On to `O=C(Cn1cc(F)c2ncc(-c3cc(Cl)cs3)cc21)N1CCC1` [Example 397, 1-(Azetidin-1-yl)-2-[6-(4-chloro-2-thienyl)-3-fluoro-pyrrolo[3,2-b]pyridin-1-yl]ethanone trifluoroacetate salt], for which, under setting [1], the IC50 is 50.1 nM.

As to `CCN(C)C(=O)Cn1ccc2ncc(-c3ccc(F)cc3)cc21` [Example 419, N-Ethyl-2-[6-(4-fluorophenyl)pyrrolo[3,2-b]pyridin-1-yl]-N-methyl-acetamide], the IC50 under setting [1] was 63.1 nM.

Consider `O=C(Cn1ccc2ncc(-c3ccc(F)cc3)cc21)N1CCC(O)C1` (racemic) [Example 218, (R/S)-2-[6-(4-Fluorophenyl)pyrrolo[3,2-b]pyridin-1-yl]-1-(3-hydroxypyrrolidin-1-yl)ethanone], for which the IC50 (cloned human NR1/NR2B) was 398 nM.

Turning to `Cc1cc(-c2cnc3ccn(CC(=O)N4CCC(F)CC4)c3c2)ccc1F` [Example 191, 2-[6-(4-Fluoro-3-methyl-phenyl)pyrrolo[3,2-b]pyridin-1-yl]-1-(4-fluoro-1-piperidyl)ethanone trifluoroacetate salt], the IC50 (cloned human NR1/NR2B) was 316 nM.

`Cc1cc(-c2cnc3ccn(CC(=O)N4CCC(C)(O)CC4)c3c2)ccc1F` [Example 209, 2-[6-(4-Fluoro-3-methyl-phenyl)pyrrolo[3,2-b]pyridin-1-yl]-1-(4-hydroxy-4-methyl-1-piperidyl)ethanone trifluoroacetate salt]: the IC50 (cloned human NR1/NR2B) is 200 nM.

In the case of `Cc1c(F)ccc(-c2cnc3c(Cl)cn(CC(=O)N4CC(F)C4)c3c2)c1F` [Example 539, 2-[3-Chloro-6-(2,4-difluoro-3-methyl-phenyl)pyrrolo[3,2-b]pyridin-1-yl]-1-(3-fluoroazetidin-1-yl)ethanone], the IC50 under setting [1] was 25.1 nM.

For `O=C(Cn1ccc2ncc(-c3cc(F)cc(F)c3)cc21)N1CC(F)(F)C1` [Example 121, 1-(3,3-difluoroazetidin-1-yl)-2-[6-(3,5-difluorophenyl)pyrrolo[3,2-b]pyridin-1-yl]ethanone], the IC50 (cloned human NR1/NR2B) is 63.1 nM.

As to `CN(C)C(=O)Cn1cc(Cl)c2ncc(-c3cc(F)cc(F)c3)cc21` [Example 148, 2-[3-Chloro-6-(3,5-difluorophenyl)pyrrolo[3,2-b]pyridin-1-yl]-N,N-dimethyl-acetamide], the IC50 (cloned human NR1/NR2B) is 50.1 nM.

Regarding `Cc1cn(CC(=O)N2CCC2)c2cc(-c3ccc(F)c(F)c3F)cnc12` [Example 582, 1-(Azetidin-1-yl)-2-[3-methyl-6-(2,3,4-trifluorophenyl)pyrrolo[3,2-b]pyridin-1-yl]ethanone], the IC50 under setting [1] is 39.8 nM.

For `Cc1csc(-c2cnc3c(F)cn(CC(=O)C4CC4)c3c2)c1` [Example 317, 1-Cyclopropyl-2-[3-fluoro-6-(4-methyl-2-thienyl)pyrrolo[3,2-b]pyridin-1-yl]ethanone], the IC50 (cloned human NR1/NR2B) was 39.8 nM.

For the compound `CCc1cccc(-c2cnc3c(F)cn(CC(=O)N4CC(F)C4)c3c2)c1` [Example 491, 2-[6-(3-Ethylphenyl)-3-fluoro-pyrrolo[3,2-b]pyridin-1-yl]-1-(3-fluoroazetidin-1-yl)ethanone], the IC50 under setting [1] is 15.8 nM.

`O=C(Cn1cc(Cl)c2ncc(-c3ccc(F)c(F)c3F)cc21)N1CC(F)(F)C1` [Example 50, 2-[3-Chloro-6-(2,3,4-trifluorophenyl)pyrrolo[3,2-b]pyridin-1-yl]-1-(3,3-difluoroazetidin-1-yl)ethanone]: where the note is “cloned human NR1/NR2B”, the IC50 was 39.8 nM.

Regarding `Cc1cc2ncc(-c3ccc(F)cc3)cc2n1CC(=O)N1CCOCC1` [Example 31, 2-[6-(4-Fluorophenyl)-2-methyl-pyrrolo[3,2-b]pyridin-1-yl]-1-morpholino-ethanone], the IC50 (cloned human NR1/NR2B) was 3160 nM.

Consider `Cc1cc(-c2cnc3ccn(CC(=O)NC4CC4)c3c2)ccc1F` [Example 348, N-Cyclopropyl-2-[6-(4-fluoro-3-methyl-phenyl)pyrrolo[3,2-b]pyridin-1-yl]acetamide], for which the IC50 (cloned human NR1/NR2B) was 31.6 nM.

As for `O=C(Cn1cc(Cl)c2ncc(-c3cccc(C(F)(F)F)n3)cc21)N1CC(F)C1` [Example 247, 2-[3-Chloro-6-[6-(trifluoromethyl)-2-pyridyl]pyrrolo[3,2-b]pyridin-1-yl]-1-(3-fluoroazetidin-1-yl)ethanone], the IC50 (cloned human NR1/NR2B) was 316 nM.

For the compound `Cc1csc(-c2cnc3c(Cl)cn(CC(=O)N4CCC4)c3c2)c1` [Example 407, 1-(Azetidin-1-yl)-2-[3-chloro-6-(4-methyl-2-thienyl)pyrrolo[3,2-b]pyridin-1-yl]ethanone], the IC50 under setting [1] was 6310 nM.

Regarding `Cc1cc(-c2cnc3c(Cl)cn(Cc4cccnn4)c3c2)ccc1F` [Example 614, 3-Chloro-6-(4-fluoro-3-methyl-phenyl)-1-(pyridazin-3-ylmethyl)pyrrolo[3,2-b]pyridine], the IC50 under setting [1] was 31.6 nM.

For the compound `Cc1cn(CC(=O)N2CCC2)c2cc(-c3ccc(F)cc3)cnc12` [Example 33, 1-(Azetidin-1-yl)-2-[6-(4-fluorophenyl)-3-methyl-pyrrolo[3,2-b]pyridin-1-yl]ethanone], the IC50 (cloned human NR1/NR2B) is 63.1 nM.

Turning to `Cc1c(F)ccc(-c2cnc3ccn(CC(=O)N4CCC4)c3c2)c1C` [Example 164, 1-(Azetidin-1-yl)-2-[6-(4-fluoro-2,3-dimethyl-phenyl)pyrrolo[3,2-b]pyridin-1-yl]ethanone trifluoroacetate salt], the IC50 (cloned human NR1/NR2B) was 63.1 nM.

As to `CCC(=O)Cn1cc(F)c2ncc(-c3ccc(F)c(C)c3)cc21` [Example 335, 1-[3-Fluoro-6-(4-fluoro-3-methyl-phenyl)pyrrolo[3,2-b]pyridin-1-yl]butan-2-one], where the note is “cloned human NR1/NR2B”, the IC50 was 12.6 nM.

Regarding `O=C(Cn1ccc2ncc(-c3ccccc3)cc21)N1CC(F)(F)C1` [Example 257, 1-(3,3-Difluoroazetidin-1-yl)-2-(6-phenylpyrrolo[3,2-b]pyridin-1-yl)ethanone trifluoroacetate salt], the IC50 (cloned human NR1/NR2B) was 126 nM.

For `CN(C)C(=O)Cn1cc(Cl)c2ncc(-c3cc(Cl)cs3)cc21` [Example 414, 2-[3-Chloro-6-(4-chloro-2-thienyl)pyrrolo[3,2-b]pyridin-1-yl]-N,N-dimethyl-acetamide], the IC50 under setting [1] is 39.8 nM.

As for `O=C(Cn1ccc2ncc(-c3ccccc3)cc21)NC1CC1` [Example 158, N-Cyclopropyl-2-(6-phenylpyrrolo[3,2-b]pyridin-1-yl)acetamide trifluoroacetate salt], the IC50 (cloned human NR1/NR2B) was 631 nM.

Take `Cc1cn(CC(=O)N2CCCC2)c2cc(-c3ccc(F)cc3)cnc12` [Example 27, 2-[6-(4-Fluorophenyl)-3-methyl-pyrrolo[3,2-b]pyridin-1-yl]-1-pyrrolidin-1-yl-ethanone]: under “cloned human NR1/NR2B”, the IC50 was 50.1 nM.

For `Cc1cn(CC(=O)N2CC(F)(F)C2)c2cc(-c3ccc(F)c(F)c3F)cnc12` [Example 596, 1-(3,3-Difluoroazetidin-1-yl)-2-[3-methyl-6-(2,3,4-trifluorophenyl)pyrrolo[3,2-b]pyridin-1-yl]ethanone], the IC50 under setting [1] was 50.1 nM.

`O=C(Cn1cc(Br)c2ncc(-c3ccccc3)cc21)N1CCOCC1` [Example 16, 2-(3-Bromo-6-phenyl-pyrrolo[3,2-b]pyridin-1-yl)-1-morpholino-ethanone]: the IC50 (cloned human NR1/NR2B) is 79.4 nM.

Turning to `O=C(Cn1ccc2ncc(-c3ccc(F)cc3)cc21)NCC1CC1` [Example 237, N-(Cyclopropylmethyl)-2-[6-(4-fluorophenyl)pyrrolo[3,2-b]pyridin-1-yl]acetamide], under “cloned human NR1/NR2B”, the IC50 is 2000 nM.

Turning to `O=C(Cn1ccc2ncc(-c3ccc(F)c(F)c3)cc21)N1CC(F)C1` [Example 128, 2-[6-(3,4-Difluorophenyl)pyrrolo[3,2-b]pyridin-1-yl]-1-(3-fluoroazetidin-1-yl)ethanone], the IC50 (cloned human NR1/NR2B) was 63.1 nM.

In the case of `O=C(Cn1cc(Cl)c2ncc(-c3cccc(C(F)(F)F)c3)cc21)N1CC(F)C1` [Example 48, 2-[3-Chloro-6-[3-(trifluoromethyl)phenyl]pyrrolo[3,2-b]pyridin-1-yl]-1-(3-fluoroazetidin-1-yl)ethanone], where the note is “cloned human NR1/NR2B”, the IC50 is 631 nM.

For the compound `O=C(Cn1ccc2ncc(-c3cccc(Cl)c3)cc21)N1CCC1` [Example 463, 1-(Azetidin-1-yl)-2-[6-(3-chlorophenyl)pyrrolo[3,2-b]pyridin-1-yl]ethanone], the IC50 under setting [1] is 100 nM.
